Results reported in ChEMBL document CHEMBL6074689 (Eur J Med Chem, 2025).
pIC50: −log10 of the molar value. Active and inactive are the calls of the source. The calls are words filed in the database; no cut-off is given here.

Experiments:
Cholinesterase = Cholinesterase (Equus caballus, UniProt P81908); assay: Inhibition of equine serum BChE using acetylthiocholine iodide as substrate preincubated with compound for 30 mins followed by substrate addition and measured after 30 mins by DTNB reagent based Ellman's method
Chain of Cholinesterase (P81908 whole entry): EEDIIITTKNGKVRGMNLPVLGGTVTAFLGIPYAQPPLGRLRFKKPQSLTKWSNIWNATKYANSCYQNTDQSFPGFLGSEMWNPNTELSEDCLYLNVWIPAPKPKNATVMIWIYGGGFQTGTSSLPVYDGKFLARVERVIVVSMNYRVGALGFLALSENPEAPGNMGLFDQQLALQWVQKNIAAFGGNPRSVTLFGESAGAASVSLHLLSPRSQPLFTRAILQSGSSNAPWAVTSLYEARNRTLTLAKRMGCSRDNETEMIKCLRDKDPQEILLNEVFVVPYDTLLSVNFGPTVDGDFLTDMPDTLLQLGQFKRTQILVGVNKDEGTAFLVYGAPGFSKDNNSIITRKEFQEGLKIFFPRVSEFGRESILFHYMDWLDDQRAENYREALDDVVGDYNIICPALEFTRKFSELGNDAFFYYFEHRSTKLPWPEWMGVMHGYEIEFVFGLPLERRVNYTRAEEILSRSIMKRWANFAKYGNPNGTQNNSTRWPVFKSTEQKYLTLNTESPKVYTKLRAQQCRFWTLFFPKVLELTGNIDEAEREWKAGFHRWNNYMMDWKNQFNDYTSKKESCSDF

Acetylcholinesterase [1] = biological target: T1, Acetylcholinesterase (Homo sapiens, UniProt P22303); assay: Reversible binding affinity to human AChE using acetylthiocholine iodide as substrate assessed as equilibrium binding constant preincubated for 40 mins by DTNB reagent based Ellman's method
T1 sequence (P22303 whole entry): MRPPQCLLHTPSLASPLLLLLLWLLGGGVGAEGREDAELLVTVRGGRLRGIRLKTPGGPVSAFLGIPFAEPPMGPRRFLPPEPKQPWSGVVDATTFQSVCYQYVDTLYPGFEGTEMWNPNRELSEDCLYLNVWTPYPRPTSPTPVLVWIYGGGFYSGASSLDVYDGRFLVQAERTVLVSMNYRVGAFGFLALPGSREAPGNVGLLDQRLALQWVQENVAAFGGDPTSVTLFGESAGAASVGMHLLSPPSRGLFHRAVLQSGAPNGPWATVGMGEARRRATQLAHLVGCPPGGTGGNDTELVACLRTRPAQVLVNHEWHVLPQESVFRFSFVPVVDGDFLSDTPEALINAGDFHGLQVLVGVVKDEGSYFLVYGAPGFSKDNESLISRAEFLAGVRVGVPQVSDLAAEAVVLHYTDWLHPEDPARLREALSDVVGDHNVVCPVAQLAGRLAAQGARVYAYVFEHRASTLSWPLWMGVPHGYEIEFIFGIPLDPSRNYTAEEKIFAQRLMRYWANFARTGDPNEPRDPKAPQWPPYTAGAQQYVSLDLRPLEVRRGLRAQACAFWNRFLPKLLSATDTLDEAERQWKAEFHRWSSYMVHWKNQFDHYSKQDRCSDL

Acetylcholinesterase [2] = biological target: T1, Acetylcholinesterase; assay: Reversible binding affinity to human AChE using acetylthiocholine iodide as substrate assessed as binding constant preincubated for 40 mins by DTNB reagent based Ellman's method
[3] = Antioxidant activity assessed as DPPH radical scavenging activity at 200 uM incubated for 30 mins relative to control; format: functional
PC-12 [4] = assay: Cytotoxicity against rat PC-12 cells assessed as cell viability upto 20 uM measured for 24 hrs by MTT assay; format: toxicity, cell-based; conditions: pc-12, 24 h
PC-12 [5] = assay: Neuroprotective activity against H2O2-induced oxidative stress in rat PC-12 cells assessed as cell viability at 1 to 20 uM preincubated with compound for 24 hrs and followed by H2O2 induction and measured after 24 hrs by MTT assay; format: functional, cell-based; conditions: dose 1-20 µM, time 48.0 hrs
PC-12 [6] = assay: Induction of apoptosis in rat PC-12 cells assessed as viable cells at 10 uM incubated for 24 hrs by Annexin V/PI staining based flow cytometry analysis (reference value: 82.8%); format: functional; conditions: read-out: Activity
PC-12 [7] = assay: Induction of apoptosis in rat PC-12 cells assessed as viable cells at 5 uM incubated for 24 hrs by Annexin V/PI staining based flow cytometry analysis (reference value: 82.8%); format: functional; conditions: read-out: Activity
[8] = Metal chelating activity assessed as compound-Fe2+ complex formation by measuring increase in absorption intensity at 300 uM in presence of by UV-vis spectrometry
[9] = biological target: Amyloid-beta precursor protein (Homo sapiens) (UniProt P05067); assay: Inhibition of amyloid beta (1 to 42) (unknown origin) self induced aggregation at 1.521 uM incubated for 72 hrs by ThT fluorescence based assay
Chain of Amyloid-beta precursor protein (Homo sapiens) (P05067 whole entry): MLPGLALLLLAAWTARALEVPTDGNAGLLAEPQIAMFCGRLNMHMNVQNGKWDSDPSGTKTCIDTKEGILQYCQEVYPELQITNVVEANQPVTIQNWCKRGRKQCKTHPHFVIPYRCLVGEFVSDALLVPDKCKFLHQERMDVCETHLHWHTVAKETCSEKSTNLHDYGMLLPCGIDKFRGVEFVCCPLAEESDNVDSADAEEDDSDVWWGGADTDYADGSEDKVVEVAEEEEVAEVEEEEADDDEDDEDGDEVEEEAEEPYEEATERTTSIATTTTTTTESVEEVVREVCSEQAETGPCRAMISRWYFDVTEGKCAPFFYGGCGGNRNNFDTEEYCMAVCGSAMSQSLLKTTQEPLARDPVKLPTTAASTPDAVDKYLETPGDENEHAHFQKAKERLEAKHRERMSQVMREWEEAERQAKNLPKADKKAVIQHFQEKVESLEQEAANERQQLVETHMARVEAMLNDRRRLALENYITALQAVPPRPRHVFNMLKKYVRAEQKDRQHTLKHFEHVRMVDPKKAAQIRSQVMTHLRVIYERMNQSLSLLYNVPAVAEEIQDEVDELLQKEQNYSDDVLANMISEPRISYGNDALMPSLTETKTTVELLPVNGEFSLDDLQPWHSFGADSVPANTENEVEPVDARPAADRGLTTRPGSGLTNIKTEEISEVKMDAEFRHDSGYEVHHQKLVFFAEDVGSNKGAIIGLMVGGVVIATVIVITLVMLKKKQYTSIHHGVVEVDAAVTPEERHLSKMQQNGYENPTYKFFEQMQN

[10] = biological target: Amyloid-beta precursor protein (Homo sapiens) (UniProt P05067); assay: Inhibition of amyloid beta (1 to 42) (unknown origin) self induced aggregation at 1.521 uM incubated for 72 hrs by transmission electron microscopic analysis
[11] = Toxicity in Drosophila melanogaster Oregon R-positive assessed as reduction in eclosed flies at 10 uM measured for 15 days relative to control; design: scale not given: the % may be the effect or the level left; conditions: 360 h, time 15 day
[12] = Acute toxicity in Swiss albino mouse assessed as body weight gain at 175 mg/kg, po administered for 14 days; format: organism-based; conditions: in vivo, 336 h, time 14 day
Drosophila melanogaster [13] = assay: Anti-alzheimer activity in ey-GAL4 driven UAS-amyloid beta (1 to 42) induced Drosophila melanogaster Oregon R-positive assessed as mild eye phenotype at 10 to 20 uM by Stereo zoom microscopic imaging analysis relative to control; format: functional; conditions: dose 10-20 µM
Drosophila melanogaster [14] = assay: Anti-alzheimer activity in ey-GAL4 driven UAS-amyloid beta (1 to 42) induced Drosophila melanogaster Oregon R-positive assessed as severe eye phenotype at 10 to 20 uM by Stereo zoom microscopic imaging analysis relative to control; format: functional; conditions: dose 10-20 µM
Drosophila melanogaster [15] = assay: Anti-alzheimer activity in ey-GAL4 driven UAS-amyloid beta (1 to 42) induced Drosophila melanogaster Oregon R-positive assessed as rescued eye phenotype at 10 to 20 uM by Stereo zoom microscopic imaging analysis relative to control; format: functional; conditions: dose 10-20 µM
Drosophila melanogaster [16] = assay: Anti-alzheimer activity in ey-GAL4 driven UAS-amyloid beta (1 to 42) induced Drosophila melanogaster Oregon R-positive assessed as severe eye phenotype at 10 uM by Stereo zoom microscopic imaging analysis relative to control; format: functional
Drosophila melanogaster [17] = assay: Anti-alzheimer activity in ey-GAL4 driven UAS-amyloid beta (1 to 42) induced Drosophila melanogaster Oregon R-positive assessed as mild eye phenotype at 40 uM by Stereo zoom microscopic imaging analysis relative to control; format: functional
Drosophila melanogaster [18] = assay: Anti-alzheimer activity in ey-GAL4 driven UAS-amyloid beta (1 to 42) induced Drosophila melanogaster Oregon R-positive assessed as severe eye phenotype at 40 uM by Stereo zoom microscopic imaging analysis relative to control; format: functional
Drosophila melanogaster [19] = assay: Anti-alzheimer activity in ey-GAL4 driven UAS-amyloid beta (1 to 42) induced Drosophila melanogaster Oregon R-positive assessed as rescued eye phenotype at 40 uM by Stereo zoom microscopic imaging analysis relative to control; format: functional
Drosophila melanogaster [20] = assay: Anti-alzheimer activity in ey-GAL4 driven UAS-amyloid beta (1 to 42) induced Drosophila melanogaster Oregon R-positive assessed as increase in superoxide level at 10 to 20 uM by fluorescence based analysis; format: functional, organism-based; conditions: dose 10-20 µM
Drosophila melanogaster [21] = assay: Inhibition of oxidative stress in y-GAL4 driven UAS-amyloid beta (1 to 42) induced Drosophila melanogaster Oregon R-positive assessed as reduction in ROS level at 10 to 20 uM incubated for 30 mins by H2DCFDA staining based analysis; format: functional, organism-based; conditions: dose 10-20 µM
[22] = Acute toxicity in Swiss albino mouse assessed as animal survival at 175 mg/kg, po administered for 14 days; format: organism-based; conditions: in vivo, 336 h, time 14 day
[23] = Acute toxicity in Swiss albino mouse assessed as abnormal behavior at 175 mg/kg, po administered for 14 days; format: organism-based; conditions: in vivo, 336 h, time 14 day
[24] = Acute toxicity in Swiss albino mouse assessed as convulsion at 175 mg/kg, po administered for 14 days; format: organism-based; conditions: in vivo, 336 h, time 14 day
[25] = Acute toxicity in Swiss albino mouse assessed as tremor at 175 mg/kg, po administered for 14 days; format: organism-based; conditions: in vivo, 336 h, time 14 day
Mus musculus [26] = assay: Antialzheimer activity in scopolamine-induced Swiss albino mouse model assessed as improvement in memory retention by measuring time spent in platform quadrant at 0.3 to 0.5 mg/kg, po preincubated with compound for 30 mins followed by scopolamine induction and measured after 5 days by Morris water maze test; format: functional, organism-based; conditions: dose 0.3-0.5 mg/kg, time 7230.0 min
Mus musculus [27] = assay: Antialzheimer activity in scopolamine-induced Swiss albino mouse model assessed as reduction in AChE level at 0.3 to 0.5 mg/kg, po preincubated with compound for 30 mins followed by scopolamine induction and measured after 30 mins; format: functional, organism-based; conditions: dose 0.3-0.5 mg/kg, time 1.0 hrs
Mus musculus [28] = assay: Neuroprotective activity against scopolamine-induced Swiss albino mouse model assessed as increase in CREB1 mRNA level at 0.3 to 0.5 mg/kg, po measured after 6 days by RT-PCR analysis; format: functional, organism-based; conditions: dose 0.3-0.5 mg/kg, time 6.0 day
Mus musculus [29] = assay: Neuroprotective activity against scopolamine-induced Swiss albino mouse model assessed as increase in C-FOS mRNA level at 0.3 to 0.5 mg/kg, po measured after 6 days by RT-PCR analysis; format: functional, organism-based; conditions: dose 0.3-0.5 mg/kg, time 6.0 day
Mus musculus [30] = assay: Neuroprotective activity against scopolamine-induced Swiss albino mouse model assessed as effect on GAP43 mRNA level at 0.3 to 0.5 mg/kg, po measured after 6 days by RT-PCR analysis; format: functional, organism-based; conditions: dose 0.3-0.5 mg/kg, time 6.0 day
Mus musculus [31] = assay: Neuroprotective activity against scopolamine-induced Swiss albino mouse model assessed as effect on PSD95 mRNA level at 0.3 to 0.5 mg/kg, po measured after 6 days by RT-PCR analysis; format: functional, organism-based; conditions: dose 0.3-0.5 mg/kg, time 6.0 day
Mus musculus [32] = assay: Neuroprotective activity against scopolamine-induced Swiss albino mouse model assessed as upregulation of MMP9 mRNA level at 0.3 to 0.5 mg/kg, po measured after 6 days by RT-PCR analysis; format: functional, organism-based; conditions: dose 0.3-0.5 mg/kg, time 6.0 day

Q: What does the source list for `C[C@@H](c1cccc(OC(=O)NCCc2c[nH]c3ccc(Cl)cc23)c1)N(C)C`?
A: pIC50 (Cholinesterase): 9.10; Kb (Acetylcholinesterase [1]): 0.196 nM; K (Acetylcholinesterase [2]): 0.041 min⁻¹; Activity [3]: 38.9%; Activity (PC-12 [4]): Non-toxic; Activity (PC-12 [5]): Active; viability at 10 µM (PC-12 [6]): 55.3%; viability at 5 µM (PC-12 [7]): 81.1%; Activity [8]: inactive; inhibition [9]: 100%; inhibition [10]: Active; Activity [11]: 108%; Activity [12]: Non-toxic; Activity (Drosophila melanogaster [13]): 36%; Activity (Drosophila melanogaster [14]): 20%; Activity (Drosophila melanogaster [15]): 36%; Activity (Drosophila melanogaster [16]): 20%; Activity (Drosophila melanogaster [17]): 43%; Activity (Drosophila melanogaster [18]): 16%; Activity (Drosophila melanogaster [19]): 40%; Activity (Drosophila melanogaster [20]): Active; Activity (Drosophila melanogaster [21]): Active; Activity [22]: Non-toxic; Activity [23]: Non-toxic; Activity [24]: Non-toxic; Activity [25]: Non-toxic; Activity (Mus musculus [26]): Active; Activity (Mus musculus [27]): Active; Activity (Mus musculus [28]): Active; Activity (Mus musculus [29]): Active; Activity (Mus musculus [30]): Active; Activity (Mus musculus [31]): Active; Activity (Mus musculus [32]): Active
